Experimental data from US20220305003A1, “METHODS OF TREATING CANCER WITH AN INHIBITOR OF ZNF827” (CHILDREN'S MEDICAL RESEARCH INSTITUTE, priority 2019, published 2022).

B1: ss telomeric G rich oligo (ssDNA)
DNA: TTAGGGTTAGGGTTAGGG

Columns and labels:
EdU flow cytometry = type: cell-based; details: EdU pulse 1 hour
Protocol: Using EdU flow cytometry (5-ethynyl-2′-deoxyuridine) is a thymidine analogue which is incorporated into DNA during active DNA synthesis), the effects of ZNF827 depletion on cell cycle progression, especially on DNA replication, were examined.
EdU flow cytometry was performed with the Click-iT EdU flow cytometry kit (ThermoFisher Scientific) according to manufacturer's instructions. Briefly cells were pulsed with EdU for 1 hour at 37° C. and harvested by trypsinisation and centrifugation at 1000 rpm for 5 minutes. Cells were then fixed and labelled with Alex Fluor 647 with the flow cytometry kit following the manufacturer's protocol. For DNA content labelling, the fixed cells were treated with 0.5 mg of RNase (Sigma) and 25 μg of propidium iodide at 37° C. for 30 minutes. Labelled cells were analysed using the BD FACSCanto Flow Cytometer (BD Biosciences) containing lasers to excite Alexa Fluor 647 labelled EdU and propidium iodide. Between 10 000-15 000 events were collected at an approximate flow rate of 200 events/second. Data analysis was conducted using FlowJo 7.

ATR-CHK1 pathway = experiment: Western blot of pCHK1, pRPA32 and p21 after ZNF827 knockdown, topotecan and/or ATR inhibitor; type: cell-based
Protocol: Protein was extracted from 10^6 cells per sample by vigorous pipetting and incubation at room temperature for 30 minutes in 100 μL of EDTA-free 4× LDS buffer (106 mM Tris-Cl, 141 mM Tris-Base, 40% Glycerol, 2% LDS, 0.075% SERVA Blue G50) supplemented with 2.5% Benzonase® nuclease 25 U/μL (Novagen, Merck Millipore) and 2% beta-mercaptoethanol (Sigma). Following protein extraction, all samples were denatured at 90° C. for 15 minutes before resolving on NuPAGE® Novex® 4-12% Bis-Tris Mini Gels (Invitrogen) with 1×10^5 cells (10 μL) loaded per lane in NuPAGE® MES SDS running buffer (Invitrogen) at 200 V for 50 minutes. Gels were transferred onto a PVDF membrane (Immobilon-P, Millipore) in transfer buffer (190 mM glycine, 25 mM Tris and 10% methanol) at 100 V for 60 minutes. Membranes were stained with Ponceau-S for 30 minutes, de-stained then blocked for 1 hour at room temperature in 5% skim milk dissolved in PBS with 0.1% Tween-20 (PBST) or TBS with 0.1% Tween-20 (TBST) for phosphorylated proteins. Membranes were cut into appropriate segments based on the size markers, with each segment incubated with antibodies for proteins of interest diluted in 0.5% skim milk in PBST/TBST or 5% BSA overnight at 4° C. (Refer to Table 4 for the list of antibodies). Blots were then washed for 3×5 minutes in PBST/TBST followed by incubation for 1 hour at room temperature with appropriate secondary antibodies (See Table 5) diluted 1:5000 in 0.5% skim milk or 5% BSA in PBST/TBST. Blots were washed for 3×5 minutes in PBST/TBST before incubation with SuperSignal West Pico Chemiluminescent Substrate (ThermoFisher Scientific) for 5 minutes at room temperature. Blots were then exposed to a Luminescent Image Analyser (LAS-4000, Fujifilm).

ZNF827 ZnF1-3 deleted = biological target: T1, ZNF827 ZnF1-3 deleted (Homo sapiens, UniProt Q17R98 SEQ:4-997); experiment: EMSA; interaction abolished; details: tags: HaloTag (pHTN), expressed in HEK 293T, tag removed by HaloTEV cleavage; label: 32P (gamma)
T1 chain: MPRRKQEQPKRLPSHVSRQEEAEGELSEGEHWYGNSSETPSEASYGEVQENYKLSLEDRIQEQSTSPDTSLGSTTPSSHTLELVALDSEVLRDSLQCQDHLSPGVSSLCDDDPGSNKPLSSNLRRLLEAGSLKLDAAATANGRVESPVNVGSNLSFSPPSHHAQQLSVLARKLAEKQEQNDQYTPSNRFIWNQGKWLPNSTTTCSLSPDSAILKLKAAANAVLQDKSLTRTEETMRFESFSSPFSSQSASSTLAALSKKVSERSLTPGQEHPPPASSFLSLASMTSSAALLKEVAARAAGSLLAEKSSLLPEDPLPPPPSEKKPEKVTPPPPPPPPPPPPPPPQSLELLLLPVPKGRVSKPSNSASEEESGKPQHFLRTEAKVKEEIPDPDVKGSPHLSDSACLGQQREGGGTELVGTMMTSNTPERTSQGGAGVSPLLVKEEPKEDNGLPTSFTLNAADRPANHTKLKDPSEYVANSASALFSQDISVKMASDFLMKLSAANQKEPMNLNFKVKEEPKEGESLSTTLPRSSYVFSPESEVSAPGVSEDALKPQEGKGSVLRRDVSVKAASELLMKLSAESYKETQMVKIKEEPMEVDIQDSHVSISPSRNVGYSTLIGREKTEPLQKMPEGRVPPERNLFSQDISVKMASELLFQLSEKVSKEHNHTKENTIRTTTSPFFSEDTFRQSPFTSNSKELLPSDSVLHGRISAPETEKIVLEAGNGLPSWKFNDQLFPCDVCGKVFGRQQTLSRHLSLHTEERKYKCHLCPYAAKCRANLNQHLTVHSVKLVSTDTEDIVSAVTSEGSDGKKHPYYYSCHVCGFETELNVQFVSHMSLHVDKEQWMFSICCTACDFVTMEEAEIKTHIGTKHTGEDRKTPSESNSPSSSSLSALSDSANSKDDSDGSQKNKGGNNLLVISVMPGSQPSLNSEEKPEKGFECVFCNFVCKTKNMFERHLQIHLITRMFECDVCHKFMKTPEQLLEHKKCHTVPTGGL
Protocol: Purified proteins were quantified using a BCA assay using the Pierce™ BCA Protein Assay Kit according to the manufacturer's instructions. Equal amounts of purified proteins were incubated in binding buffer (20 mM HEPES-KOH, pH7.9, 100 mM KCl, 0.8 mM ZnCl₂, 0.2 mM EDTA, 5% glycerol, 0.5 mM DTT and 0.5 mM PMSF) with 6.25 μg/mL poly (dI:dC) and 50 ng/μL BSA on ice for 20 minutes. ˜0.12 nM (˜2.5 fmol) γ-³²P labelled DNA oligonucleotide (see Table 3) probes were added to samples and incubated on ice for another 30 minutes. Binding reactions were loaded onto an 8% native acrylamide/bisacrylamide (19:1, Biorad) gel pre-run at 100V in 0.5× TB buffer (89 mM Tris, 89 mM boric acid) for 20 minutes. Gels were electrophoresed at 150 V for 150 minutes at 4° C., dried at 65° C. for 45 minutes, and then exposed to a Phosphor screen overnight. Gel images were obtained by scanning the screens with a Typhoon FLA9500 Imager (GE Life Sciences).

| Molecule | cell cycle distribution (EdU) (EdU flow cytometry) | phosphorylation of CHK1 S345 and RPA32 S33 compared with ATR inhibitors (ATR-CHK1 pathway; ZNF827 knockdown versus ATR inhibitors VE-821 and AZ20) | phosphorylation of CHK1 S345 and RPA S33 (ATR-CHK1 pathway; ZNF827 knockdown, topotecan treatment) | p21 level (ATR-CHK1 pathway; unchallenged ZNF827-depleted cells, compared with topotecan-treated cells) | binding result (ZNF827 ZnF1-3 deleted) |
| --- | --- | --- | --- | --- | --- |
| siZNF827: Stealth RNAi siRNA ZNF827HSS135819 duplex oligoribonucleotides (Invitrogen), SEQ ID NO: 12 and 13 (chain 1 GGGCAGUCUUCUGGCUGAGAAAUCA; chain 2 UGAUUUCUCAGCCAGAAGACUGCCC; listed as RNA, further chemistry not given here) | conspicuous G1 arrest and a significant reduction of S phase cells | greater reduction in phosphorylation of CHK1 S345 and RPA32 S33 than ATR inhibitors | substantially suppressed | upregulated | – |
| B1 | – | – | – | – | no binding |
